Test results taken from article PMC6269915, “Design, Synthesis and Evaluation of 3-(2-Aminoheterocycle)-4-benzyloxyphenylbenzamide Derivatives as BACE-1 Inhibitors” (Molecules, 2013).
“Also recorded” adds a separate entry of the source. Where a name gives a salt, the structure may show the parent alone. Read-outs that look alike come from different tables or passages of the source.

Assays:
[1] = molecular target: T1, BACE-1 (Homo sapiens, UniProt P56817); experiment: BACE-1 inhibition, fluorescence resonance energy transfer (FRET) assay; type: biochemical; details: BACE-1 FRET assay; for inhibition at 20 µg/mL: 20 μg/mL
T1 construct: host or cells: insect cells
T1 sequence (P56817 46-501): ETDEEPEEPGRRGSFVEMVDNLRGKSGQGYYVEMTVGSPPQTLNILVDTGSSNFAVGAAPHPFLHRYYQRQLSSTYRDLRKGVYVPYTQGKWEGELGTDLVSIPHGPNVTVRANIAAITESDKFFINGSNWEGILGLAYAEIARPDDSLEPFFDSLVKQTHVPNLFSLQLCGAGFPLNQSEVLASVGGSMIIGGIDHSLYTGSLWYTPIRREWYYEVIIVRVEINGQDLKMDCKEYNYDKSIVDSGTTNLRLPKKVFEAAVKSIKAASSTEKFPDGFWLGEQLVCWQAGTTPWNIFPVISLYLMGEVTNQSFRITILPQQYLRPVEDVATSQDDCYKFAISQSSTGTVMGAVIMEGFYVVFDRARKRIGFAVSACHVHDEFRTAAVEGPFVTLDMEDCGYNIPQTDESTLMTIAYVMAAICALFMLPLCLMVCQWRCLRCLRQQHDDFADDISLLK
Description: The obtained target compounds were tested for their BACE-1 inhibitory activities using a fluorescence resonance energy transfer (FRET) assay, with OM99-2, a potent peptidomimetic inhibitor, as the positive control.
All synthesized compounds were tested for their BACE 1 inhibitor activities using a fluorescence resonance energy transfer (FRET) assay, which used purified insect-expressed BACE-1 and a specific substrate. An excitation wavelength of 355 nm and an emission wavelength of 460 nm were used to monitor the hydrolysis of substrate.

[2] = Bidirectional transport across MDCK monolayer cells; type: in vitro ADME, canine; details: dog
Description: (§1) Blood-brain barrier (BBB) permeation is critical for any AD therapeutic drug.
(§2) Madin-Darby canine kidney cell line (MDCK) was obtained from Peking Union Medical College (Beijing, China). The MDR1-transfected MDCK-MDR1 cells were established in Prof. Su Zeng’s laboratory as follows: MDCK cells were seeded onto six-well plates with a seeding density of 1 × 10^5 cells/well and cultured for 48 h. pcDNA3.1(+)/MDR1 plasmid vector was transfected into MDCK cells using Lipofectamine ^TM 2000 reagent according to the manufacturer’s instructions. Cells were subcultured in DMEM containing 600 µg/mL G418 for 96 h, and then replaced by DMEM containing 800 μg/mL G418 for a further 24 h. Cells were transferred to culture bottle and incubated in DMEM supplemented with 600 μg/mL G418 for 20 days. 19 stable transfected monoclonals grown on 96-well plates were obtained after dilution screening. Cells were cultured in DMEM with 10% fetal bovine serum, and grown in a humidified atmosphere of 5% CO2 at 37 °C. A solution of 0.25% trypsin-EDTA was used to detach the cells from flasks.
MDCK and MDCK-MDR1 cells were washed twice and equilibrated at 37 °C for 30 min with pre-warmed transport buffer. Hanks’ balanced salted solution (HBSS) containing HEPES (25 mM, pH 7.4). The transport buffer containing drug passed through a 0.2 μm membrane filter for degerming. For the absorption study (Apical to Basolateral), 0.5 mL incubation medium containing drug was added to the apical side as a donor chamber, 1.5 mL fresh incubation medium was added to the basolateral side as a receiver chamber. For the secretion study (Basolateral to Apical), 1.5 mL incubation medium containing drug was added to the basolateral side as a donor chamber, 0.5 mL fresh incubation medium was added to the apical side as a receiver chamber. Transport studies were conducted at 37 °C in a humidiﬁed incubator with shaking (50 rpm) for 1 h, and then the collected samples were analyzed by HPLC. […]

[3] = tested on: MDCK-MDR1 cells; experiment: Bidirectional transport across MDCK-MDR1 monolayer cells; type: in vitro ADME, canine
Description: as §1, §2
(§3) MDCK and MDCK-MDR1 cells were washed twice and equilibrated at 37 °C for 30 min with pre-warmed transport buffer. Hanks’ balanced salted solution (HBSS) containing HEPES (25 mM, pH 7.4). The transport buffer containing drug passed through a 0.2 μm membrane filter for degerming. For the absorption study (Apical to Basolateral), 0.5 mL incubation medium containing drug was added to the apical side as a donor chamber, 1.5 mL fresh incubation medium was added to the basolateral side as a receiver chamber. For the secretion study (Basolateral to Apical), 1.5 mL incubation medium containing drug was added to the basolateral side as a donor chamber, 0.5 mL fresh incubation medium was added to the apical side as a receiver chamber. Transport studies were conducted at 37 °C in a humidiﬁed incubator with shaking (50 rpm) for 1 h, and then the collected samples were analyzed by HPLC. Apparent permeability coefficients (Papp(A-B), Papp(B-A)) and efflux ratio (Pratio = (Papp(B-A)/Papp(A-B)) were used to evaluate the permeability and absorption profiles of compounds. P ratio is an important parameter to denote if a compound is a substrate of P-gp or not.

[4] = tested on: P-gp (MDR1); experiment: as above; type: in vitro ADME, canine; details: dog
Description: as §1, §2, §3

[5] = molecular target: T1, BACE-1; details: cited from earlier work
[6] = set-up: method as in PMID 17156133; details: in words; cited from earlier work
[7] = set-up: method as in PMID 19409780; details: mice, 20 mg/kg iv, t = 30 min; cited from earlier work
[8] = pH 7.4, 55.6 μM 5e, 1 h, mean ± SD, n = 3
[9] = pH 7.4, MDCK-MDR1, 55.6 μM 5e, 1 h, mean ± SD, n = 3

| Compound | melting point [°C] | inhibition at 20 µg/mL [1] [%] | other results |
| --- | --- | --- | --- |
| Nc1nc(-c2cc(NC(=O)c3ccccc3)ccc2OCc2ccccc2)cs1 [3a, N-(3-(2-Aminothiazol-4-yl)-4-(benzyloxy)phenyl)benzamide] |  | 29.3 ± 1.3 |  |
| Nc1nc(-c2cc(NC(=O)c3ccc(Cl)cc3)ccc2OCc2ccccc2)cs1 [3b, N-(3-(2-Aminothiazol-4-yl)-4-(benzyloxy)phenyl)-4-chlorobenzamide] |  | 20.4 ± 4.4 |  |
| Nc1nc(-c2cc(NC(=O)c3ccc(C(F)(F)F)cc3)ccc2OCc2ccccc2)cs1 [3c, N-(3-(2-Aminothiazol-4-yl)-4-(benzyloxy)phenyl)-4-(trifluoromethyl)benzamide] |  | 33 ± 1.9 |  |
| COc1ccc(C(=O)Nc2ccc(OCc3ccccc3)c(-c3csc(N)n3)c2)cc1 [3d, N-(3-(2-Aminothiazol-4-yl)-4-(benzyloxy)phenyl)-4-methoxybenzamide] |  | 29.5 ± 3.5 |  |
| Nc1nc(-c2cc(NC(=O)c3cccc4ccccc34)ccc2OCc2ccccc2)cs1 [3e, N-(3-(2-Aminothiazol-4-yl)-4-(benzyloxy)phenyl)-1-naphthamide] | 198 to 200 | 55.3 ± 5.7 | IC50 [1]: > 20 µM |
| Nc1nc(-c2cc(NC(=O)c3cccnc3)ccc2OCc2ccccc2)cs1 [3f, N-(3-(2-Aminothiazol-4-yl)-4-(benzyloxy)phenyl)nicotinamide] | 212 to 213 | 36.8 ± 6.9 |  |
| Nc1nc(-c2cc(NC(=O)Cc3ccccc3)ccc2OCc2ccccc2)cs1 [3g, N-(3-(2-Aminothiazol-4-yl)-4-(benzyloxy)phenyl)-2-phenylacetamide] | 190 to 193 | 8.9 ± 7 |  |
| Nc1nc(-c2cc(NC(=O)CCc3ccccc3)ccc2OCc2ccccc2)cs1 [3h, N-(3-(2-Aminothiazol-4-yl)-4-(benzyloxy)phenyl)-3-phenylpropanamide] | 192 to 193 | 3.1 ± 2.5 |  |
| Nc1nc(-c2cc(NC(=O)Cc3cccc4ccccc34)ccc2OCc2ccccc2)cs1 [3i, N-(3-(2-Aminothiazol-4-yl)-4-(benzyloxy)phenyl)-2-(naphthalen-1-yl)acetamide] | 246 to 247 | 11.3 ± 0.7 |  |
| CCNc1cc(C(=O)N[C@@H](Cc2ccccc2)[C@H](O)CNCc2cccc(C(F)(F)F)c2)c(F)c(N2CCCCS2(=O)=O)c1 [GSK188909] |  |  | IC50 [5]: 0.005 µM; blood-brain barrier permeability [6]: poor blood-brain barrier permeability |
| NC1=NC(c2ccccc2)(c2ccccc2)C2=NCCCN12 [compound 2] |  |  | [brain] [7]: 15 µM |

Further lines, with some results ahead:

| melting point [°C] | inhibition at 20 µg/mL [1] [%] | Compound | other results |
| --- | --- | --- | --- |
| 222 to 225 |  | NC1=NN=C(c2cc(NC(=O)c3ccc(C(F)(F)F)cc3)ccc2OCc2ccccc2)CS1 (as salt: hydrobromid) [5c, N-(3-(2-Amino-6H-1,3,4-thiadiazin-5-yl)-4-(benzyloxy)phenyl)-4-(trifluoromethyl)-benzamide hydro-bromide] |  |
|  | 38.8 ± 0.3 | Nc1nc(-c2cc(NC(=O)c3ccccc3)ccc2OCc2ccccc2)co1 [4a, N-(3-(2-Aminooxazol-4-yl)-4-(benzyloxy)phenyl)benzamide] |  |
|  | 49.9 ± 0.2 | Nc1nc(-c2cc(NC(=O)c3ccc(Cl)cc3)ccc2OCc2ccccc2)co1 [4b, N-(3-(2-Aminooxazol-4-yl)-4-(benzyloxy)phenyl)-4-chlorobenzamide] |  |
| 225 to 227 | 47.5 ± 9.9 | Nc1nc(-c2cc(NC(=O)c3ccc(C(F)(F)F)cc3)ccc2OCc2ccccc2)co1 [4c, N-(3-(2-Aminooxazol-4-yl)-4-(benzyloxy)phenyl)-4-(trifluoromethyl)benzamide] |  |
|  | 34.4 ± 5.7 | COc1ccc(C(=O)Nc2ccc(OCc3ccccc3)c(-c3coc(N)n3)c2)cc1 [4d, N-(3-(2-Aminooxazol-4-yl)-4-(benzyloxy)phenyl)-4-methoxybenzamide] |  |
| 195 to 197 | 42.6 ± 3.2 | Nc1nc(-c2cc(NC(=O)c3cccc4ccccc34)ccc2OCc2ccccc2)co1 [4e, N-(3-(2-Aminooxazol-4-yl)-4-(benzyloxy)phenyl)-1-naphthamide] |  |
| 246 to 247 | 64.2 ± 0.5 | Br.NC1=NN=C(c2cc(NC(=O)c3ccccc3)ccc2OCc2ccccc2)CS1 [5a, N-(3-(2-Amino-6H-1,3,4-thiadiazin-5-yl)-4-(benzyloxy)phenyl)benzamide hydrobromide] | IC50 [1]: 16.7 µM |
| 217 to 218 | 76 ± 2.5 | Br.NC1=NN=C(c2cc(NC(=O)c3ccc(Cl)cc3)ccc2OCc2ccccc2)CS1 [5b, N-(3-(2-Amino-6H-1,3,4-thiadiazin-5-yl)-4-(benzyloxy)phenyl)-4-chlorobenzamide hydrobromide] | IC50 [1]: > 20 µM |
|  | 46.9 ± 7.5 | NC1=NN=C(c2cc(NC(=O)c3ccc(C(F)(F)F)cc3)ccc2OCc2ccccc2)CS1 [5c, N-(3-(2-Amino-6H-1,3,4-thiadiazin-5-yl)-4-(benzyloxy)phenyl)-4-(trifluoromethyl)-benzamide hydro-bromide] |  |
| 181 to 182 | 84.9 ± 16.7 | Br.COc1ccc(C(=O)Nc2ccc(OCc3ccccc3)c(C3=NN=C(N)SC3)c2)cc1 [5d, N-(3-(2-Amino-6H-1,3,4-thiadiazin-5-yl)-4-(benzyloxy)phenyl)-4-methoxybenzamide hydrobromide] | IC50 [1]: > 20 µM |
| 219 to 221 | 60 ± 3.1 | Br.NC1=NN=C(c2cc(NC(=O)c3cccc4ccccc34)ccc2OCc2ccccc2)CS1 [5e, N-(3-(2-Amino-6H-1,3,4-thiadiazin-5-yl)-4-(benzyloxy)phenyl)-1-naphthamide hydrobromide] | Papp A→B at 1 h, 55.6 μM [2, 8]: 28.2 ± 6.45 ×10⁻⁶ cm/s; Papp B→A at 1 h, 55.6 μM [2, 8]: 27.7 ± 2.87 ×10⁻⁶ cm/s; efflux ratio at 1 h, 55.6 μM ([2]; pH 7.4, Papp(B-A)/Papp(A-B)): 0.98; IC50 [1]: 9.9 µM; Blood-brain barrier permeability assessment ([3]; MDCK and MDCK-MDR1 model, in words): high brain uptake potential; also recorded: good penetration ability through the blood-brain barrier; also recorded: favorable blood-brain barrier permeability; P-gp substrate assessment ([3]; net efflux ratio less than FDA's recommendation of 2): not a P-gp substrate; efflux ratio at 1 h, 55.6 μM ([4]; MDCK-MDR1, pH 7.4, MDCK-MDR1, Papp(B-A)/Papp(A-B), read-out: Efflux ratio): 0.7; efflux ratio at 1 h, 55.6 μM ([4]; MDCK-MDR1, pH 7.4, MDCK-MDR1 versus MDCK, read-out: Net efflux ratio): 0.71; Papp A→B at 1 h, 55.6 μM [4, 9]: 31.8 ± 1.85 ×10⁻⁶ cm/s; Papp B→A at 1 h, 55.6 μM [4, 9]: 22.2 ± 1.24 ×10⁻⁶ cm/s |
